We go through seven compounds from patent US10336792B2, “Antimicrobial peptide dendrimers” (priority 2014, dated 2019).

≈ marks a conversion by molar mass, not a printed value. Positions of bridges follow the written chain, without caps; N, C: chain ends. Non-standard residues stand in square brackets, D forms with d. Residues, ends and D or L forms follow the SMILES beside them. Groups on a side chain read outwards from the residue. Chains are numbered I, II in the order given. *: point of attachment. Decanoyl = CCCCCCCCCC(=O)*; Octanoyl = CCCCCCCC(=O)*; Dab = NCC[C@H](N)C(=O)O; Hexanoyl = CCCCCC(=O)*

Common to all, as to type: cell-based
The test system of assay [1] is Escherichia coli (strain DH5α). The conditions noted are these: DH5α. In outline:
(§1)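 Broth microdilution MIC in LB; overnight cultures diluted to OD600 0.001 and mixed 1:1 with ⅔-serially diluted samples (stock 1 mg mL^−1 in H2O), 37° C for 18-24 h. MTT (0.1%) added; MIC read by eye as lowest concentration inhibiting visible growth (yellow).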

Assay [2] has as its system Bacillus subtilis (strain BR151). The settings on record: strain BR151. In outline: as §1
Assay [3] deals with Pseudomonas aeruginosa (strain PA01). The assay is described as follows: microbe, parasite or virus in culture. The conditions noted are these: strain. An outline of the steps:
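P. aeruginosa PAO1 grown overnight in LB, diluted to OD600 0.001 and mixed with ⅔-step peptide dilutions, then incubated at 37 °C for 18–24 h. After MTT staining, the lowest concentration with no visible growth was read by eye as the MIC.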

As for `CC(C)C[C@H](NC(=O)[C@@H](N)CCN)C(=O)NCCCC[C@H](NC(=O)[C@H](CC(C)C)NC(=O)[C@@H](N)CCN)C(=O)N[C@@H](CCN)C(=O)N[C@@H](C)C(=O)NCCCC[C@H](NC(=O)[C@H](C)NC(=O)[C@H](CCN)NC(=O)[C@H](CCCCNC(=O)[C@H](CC(C)C)NC(=O)[C@@H](N)CCN)NC(=O)[C@H](CC(C)C)NC(=O)[C@@H](N)CCN)C(=O)N[C@@H](CCN)C(=O)N[C@@H](Cc1c[nH]c2ccccc12)C(=O)NCCCC[C@H](NC(=O)[C@H](Cc1c[nH]c2ccccc12)NC(=O)[C@H](CCN)NC(=O)[C@H](CCCCNC(=O)[C@H](C)NC(=O)[C@H](CCN)NC(=O)[C@H](CCCCNC(=O)[C@H](CC(C)C)NC(=O)[C@@H](N)CCN)NC(=O)[C@H](CC(C)C)NC(=O)[C@@H](N)CCN)NC(=O)[C@H](C)NC(=O)[C@H](CCN)NC(=O)[C@H](CCCCNC(=O)[C@H](CC(C)C)NC(=O)[C@@H](N)CCN)NC(=O)[C@H](CC(C)C)NC(=O)[C@@H](N)CCN)C(=O)N[C@@H](CCN)C(=O)N[C@@H](Cc1c[nH]c2ccccc12)C(N)=O` [MSt-207, (DabL)8(KDabA)4(KDabW)2(KDabW)] (I: H-[Dab]LK([Leu-Dab])[Dab]AK[Dab]WK[Dab]W-NH2 / II: H-[Dab]LK([Leu-Dab])[Dab]AK[Dab]W / III: H-[Dab]LK([Leu-Dab])[Dab]A / IV: H-[Dab]LK([Leu-Dab])[Dab]A; amide I:6-IV:C, I:9-II:C, II:6-III:C; N-terminus assumed), the “MIC E. coli DH5α” value in assay [1] worked out at 21 µg/mL (≈ 5.04 µM). Further, the “MIC B. subtilis BR151” value in assay [2] was found to be 7 µg/mL (≈ 1.68 µM). Besides, the “MIC P. aeruginosa PAO1” value in assay [3] is 8 µg/mL (≈ 1.92 µM).
The like results for `CCCCCC(=O)NCCCC[C@H](NC(=O)[C@H](CC(C)C)NC(=O)[C@H](CCCCN)NC(=O)[C@H](CCCCNC(=O)[C@H](CC(C)C)NC(=O)[C@H](CCCCN)NC(=O)[C@H](CCCCNC(=O)[C@H](CC(C)C)NC(=O)[C@@H](N)CCCCN)NC(=O)[C@H](CC(C)C)NC(=O)[C@@H](N)CCCCN)NC(=O)[C@H](CC(C)C)NC(=O)[C@H](CCCCN)NC(=O)[C@H](CCCCNC(=O)[C@H](CC(C)C)NC(=O)[C@@H](N)CCCCN)NC(=O)[C@H](CC(C)C)NC(=O)[C@@H](N)CCCCN)C(N)=O` [MSt-260, (KL)4(KKL)2(KKLKC6)] (I: H-KLK([Leu-Lys])KLKKLK(Hexanoyl)-NH2 / II: H-KLK([Leu-Lys])KL; amide I:6-II:C) were, in that order, 2 µg/mL (≈ 0.863 µM), 20 µg/mL (≈ 8.63 µM) and 1 µg/mL (≈ 0.432 µM).
As for `CCCCCCCC(=O)NCCCC[C@H](NC(=O)[C@H](CC(C)C)NC(=O)[C@H](CCCCN)NC(=O)[C@H](CCCCNC(=O)[C@H](CC(C)C)NC(=O)[C@H](CCCCN)NC(=O)[C@H](CCCCNC(=O)[C@H](CC(C)C)NC(=O)[C@@H](N)CCCCN)NC(=O)[C@H](CC(C)C)NC(=O)[C@@H](N)CCCCN)NC(=O)[C@H](CC(C)C)NC(=O)[C@H](CCCCN)NC(=O)[C@H](CCCCNC(=O)[C@H](CC(C)C)NC(=O)[C@@H](N)CCCCN)NC(=O)[C@H](CC(C)C)NC(=O)[C@@H](N)CCCCN)C(N)=O` [MSt-261, (KL)4(KKL)2(KKLKC8)] (I: H-KLK([Leu-Lys])KLKKLK(Octanoyl)-NH2 / II: H-KLK([Leu-Lys])KL; amide I:6-II:C), the “MIC E. coli DH5α” value in assay [1] came out at 1 µg/mL (≈ 0.426 µM). In addition, the “MIC B. subtilis BR151” value in assay [2] came to 4 µg/mL (≈ 1.71 µM). Further, in assay [3], the “MIC P. aeruginosa PAO1” value came out at 1 µg/mL (≈ 0.426 µM).
Take `CCCCCCCCCC(=O)NCCCC[C@H](NC(=O)[C@H](CC(C)C)NC(=O)[C@H](CCCCN)NC(=O)[C@H](CCCCNC(=O)[C@H](CC(C)C)NC(=O)[C@H](CCCCN)NC(=O)[C@H](CCCCNC(=O)[C@H](CC(C)C)NC(=O)[C@@H](N)CCCCN)NC(=O)[C@H](CC(C)C)NC(=O)[C@@H](N)CCCCN)NC(=O)[C@H](CC(C)C)NC(=O)[C@H](CCCCN)NC(=O)[C@H](CCCCNC(=O)[C@H](CC(C)C)NC(=O)[C@@H](N)CCCCN)NC(=O)[C@H](CC(C)C)NC(=O)[C@@H](N)CCCCN)C(N)=O` [MSt-262, (KL)4(KKL)2(KKLKC10)] (I: H-KLK([Leu-Lys])KLKKLK(Decanoyl)-NH2 / II: H-KLK([Leu-Lys])KL; amide I:6-II:C): the “MIC E. coli DH5α” value in assay [1] stood at 1 µg/mL (≈ 0.421 µM). Moreover, in assay [2], the “MIC B. subtilis BR151” value turned out to be 2 µg/mL (≈ 0.843 µM). The “MIC P. aeruginosa PAO1” value in assay [3] was determined as 1 µg/mL (≈ 0.421 µM).
For the compound `CCCCCC(=O)NCCCC[C@H](NC(=O)[C@H](CC(C)C)NC(=O)[C@H](CCCCN)NC(=O)[C@H](CCCCNC(=O)[C@H](CC(C)C)NC(=O)[C@H](CCCCN)NC(=O)[C@H](CCCCNC(=O)[C@H](CC(C)C)NC(=O)[C@H](CCCCN)NC(=O)[C@H](CCCCNC(=O)[C@H](CC(C)C)NC(=O)[C@@H](N)CCCCN)NC(=O)[C@H](CC(C)C)NC(=O)[C@@H](N)CCCCN)NC(=O)[C@H](CC(C)C)NC(=O)[C@H](CCCCN)NC(=O)[C@H](CCCCNC(=O)[C@H](CC(C)C)NC(=O)[C@@H](N)CCCCN)NC(=O)[C@H](CC(C)C)NC(=O)[C@@H](N)CCCCN)NC(=O)[C@H](CC(C)C)NC(=O)[C@H](CCCCN)NC(=O)[C@H](CCCCNC(=O)[C@H](CC(C)C)NC(=O)[C@H](CCCCN)NC(=O)[C@H](CCCCNC(=O)[C@H](CC(C)C)NC(=O)[C@@H](N)CCCCN)NC(=O)[C@H](CC(C)C)NC(=O)[C@@H](N)CCCCN)NC(=O)[C@H](CC(C)C)NC(=O)[C@H](CCCCN)NC(=O)[C@H](CCCCNC(=O)[C@H](CC(C)C)NC(=O)[C@@H](N)CCCCN)NC(=O)[C@H](CC(C)C)NC(=O)[C@@H](N)CCCCN)C(N)=O` [MSt-264, (KL)8(KKL)4(KKL)2(KKLKC6)] (I: H-KLK([Leu-Lys])KLKKLKKLK(Hexanoyl)-NH2 / II: H-KLK([Leu-Lys])KLKKL / III: H-KLK([Leu-Lys])KL / IV: H-KLK([Leu-Lys])KL; amide I:6-IV:C, I:9-II:C, II:6-III:C), in assay [1], the “MIC E. coli DH5α” value turned out to be 1 µg/mL (≈ 0.21 µM). The “MIC B. subtilis BR151” value in assay [2] was 5 µg/mL (≈ 1.05 µM). In addition, in assay [3], the “MIC P. aeruginosa PAO1” value is 1 µg/mL (≈ 0.21 µM).
On to `CCCCCCCC(=O)NCCCC[C@H](NC(=O)[C@H](CC(C)C)NC(=O)[C@H](CCCCN)NC(=O)[C@H](CCCCNC(=O)[C@H](CC(C)C)NC(=O)[C@H](CCCCN)NC(=O)[C@H](CCCCNC(=O)[C@H](CC(C)C)NC(=O)[C@H](CCCCN)NC(=O)[C@H](CCCCNC(=O)[C@H](CC(C)C)NC(=O)[C@@H](N)CCCCN)NC(=O)[C@H](CC(C)C)NC(=O)[C@@H](N)CCCCN)NC(=O)[C@H](CC(C)C)NC(=O)[C@H](CCCCN)NC(=O)[C@H](CCCCNC(=O)[C@H](CC(C)C)NC(=O)[C@@H](N)CCCCN)NC(=O)[C@H](CC(C)C)NC(=O)[C@@H](N)CCCCN)NC(=O)[C@H](CC(C)C)NC(=O)[C@H](CCCCN)NC(=O)[C@H](CCCCNC(=O)[C@H](CC(C)C)NC(=O)[C@H](CCCCN)NC(=O)[C@H](CCCCNC(=O)[C@H](CC(C)C)NC(=O)[C@@H](N)CCCCN)NC(=O)[C@H](CC(C)C)NC(=O)[C@@H](N)CCCCN)NC(=O)[C@H](CC(C)C)NC(=O)[C@H](CCCCN)NC(=O)[C@H](CCCCNC(=O)[C@H](CC(C)C)NC(=O)[C@@H](N)CCCCN)NC(=O)[C@H](CC(C)C)NC(=O)[C@@H](N)CCCCN)C(N)=O` [MSt-265, (KL)8(KKL)4(KKL)2(KKLKC8)] (I: H-KLK([Leu-Lys])KLKKLKKLK(Octanoyl)-NH2 / II: H-KLK([Leu-Lys])KLKKL / III: H-KLK([Leu-Lys])KL / IV: H-KLK([Leu-Lys])KL; amide I:6-IV:C, I:9-II:C, II:6-III:C), for which, in assay [1], the “MIC E. coli DH5α” value was found to be 1 µg/mL (≈ 0.209 µM). The “MIC B. subtilis BR151” value in assay [2] was found to be 4 µg/mL (≈ 0.835 µM). Further, the “MIC P. aeruginosa PAO1” value in assay [3] is 1 µg/mL (≈ 0.209 µM).
With `CCCCCCCCCC(=O)NCCCC[C@H](NC(=O)[C@H](CC(C)C)NC(=O)[C@H](CCCCN)NC(=O)[C@H](CCCCNC(=O)[C@H](CC(C)C)NC(=O)[C@H](CCCCN)NC(=O)[C@H](CCCCNC(=O)[C@H](CC(C)C)NC(=O)[C@H](CCCCN)NC(=O)[C@H](CCCCNC(=O)[C@H](CC(C)C)NC(=O)[C@@H](N)CCCCN)NC(=O)[C@H](CC(C)C)NC(=O)[C@@H](N)CCCCN)NC(=O)[C@H](CC(C)C)NC(=O)[C@H](CCCCN)NC(=O)[C@H](CCCCNC(=O)[C@H](CC(C)C)NC(=O)[C@@H](N)CCCCN)NC(=O)[C@H](CC(C)C)NC(=O)[C@@H](N)CCCCN)NC(=O)[C@H](CC(C)C)NC(=O)[C@H](CCCCN)NC(=O)[C@H](CCCCNC(=O)[C@H](CC(C)C)NC(=O)[C@H](CCCCN)NC(=O)[C@H](CCCCNC(=O)[C@H](CC(C)C)NC(=O)[C@@H](N)CCCCN)NC(=O)[C@H](CC(C)C)NC(=O)[C@@H](N)CCCCN)NC(=O)[C@H](CC(C)C)NC(=O)[C@H](CCCCN)NC(=O)[C@H](CCCCNC(=O)[C@H](CC(C)C)NC(=O)[C@@H](N)CCCCN)NC(=O)[C@H](CC(C)C)NC(=O)[C@@H](N)CCCCN)C(N)=O` [MSt-266, (KL)8(KKL)4(KKL)2(KKLKC10)] (I: H-KLK([Leu-Lys])KLKKLKKLK(Decanoyl)-NH2 / II: H-KLK([Leu-Lys])KLKKL / III: H-KLK([Leu-Lys])KL / IV: H-KLK([Leu-Lys])KL; amide I:6-IV:C, I:9-II:C, II:6-III:C), the “MIC E. coli DH5α” value in assay [1] came to 1 µg/mL (≈ 0.208 µM). For the same compound, the “MIC B. subtilis BR151” value in assay [2] worked out at 4 µg/mL (≈ 0.83 µM). For the same compound, in assay [3], the “MIC P. aeruginosa PAO1” value came to 1 µg/mL (≈ 0.208 µM).
